Common to all, as to format: cell-based
Assay [1] has as its system interleukin-6 (IL-6) mRNA in human aortic endothelial cells (HAEC). Kind of assay: IL-6 mRNA level detection (RT-PCR) in palmitic acid-induced inflammation of human aortic endothelial cells. The settings on record: 500 μM palmitic acid 24 h, versus control group, HAEC (FIG. 1).
Experimental: (§2) In each of the three experiment groups, the cells were respectively cultured at an atmosphere of 95% air and 5% CO2 at 37° C. in wells of a 12-well cell culture plate for the following mRNA level detection, and in wells of a 6-well cell culture plate for the following protein detection. After the cell density of the three experiment groups were all cultured to 40% to 50%, the composition was added to the cells of group III. The composition was comprised of the acetic acid, lactic acid, polyoxyethylene castor oil (EL-12), and disodium alkyl polyoxyethylene sulfosuccinate (A-102) in the mass ratio of 1:2.2:1.8:1.5. Different concentrations of the composition were obtained by diluting the composition by adding a solvent having a volume of 20, 100, or 1000 times of the composition. […]
(§3) The detecting of mRNA levels corresponding to interleukin-6 and matrix metalloproteinase-1 was carried out by using reverse transcription RNA and real-time quantitative polymerase chain reaction (PCR), and the specific method is as follows:
(§4) The medium for cell culture in the wells was removed. […] The concentration of the solution was measured by an ultraviolet spectrophotometer. […]
Assay [2] relates to matrix metalloproteinase-1 (MMP-1) mRNA in human aortic endothelial cells (HAEC). Briefly: MMP-1 mRNA level detection (RT-PCR) in palmitic acid-induced inflammation of human aortic endothelial cells. The settings on record: 500 μM palmitic acid 24 h, versus control group, HAEC (FIG. 1).
Experimental: as §2, §3, §4
Assay [3] concerns mitochondrial complex I in human aortic endothelial cells. Briefly: Western blot of mitochondrial complex I expression in palmitic acid-treated human aortic endothelial cells. The note with it: 500 μM palmitic acid 24 h alone, versus control, HAEC, Western blot (FIG. 2A, 2B). Here is the method:
(§1) Human aortic endothelial cells (HAEC) were purchased from Shanghai Baili Biotechnology Co., Ltd. Palmitic acid was purchased from SIGMA Company. The cells were cultured in a constant-temperature, humidified, sterile incubator. The experiments were performed in three experiment groups: I. control; II. 500 μM palmitic acid treatment; and III. composition protecting. In each of the three experiment groups, the cells were respectively cultured at an atmosphere of 95% air and 5% CO2 at 37° C. in wells of a 12-well cell culture plate for the following mRNA level detection, and in wells of a 6-well cell culture plate for the following protein detection. After the cell density of the three experiment groups were all cultured to 40% to 50%, the composition was added to the cells of group III. […] The supernatants were collected, and the proteins therein were quantified by bicinchoninic acid (BCA) assay, and normalized. […] Target proteins were detected by chemiluminescence. Referring to FIG. 1 to FIG. 3, the data obtained in the above-described experiments, for the amount of the mRNA and the proteins, were expressed in the diagrams in form of mean±SEM (SEM is standard error of mean), and the data were analyzed by using One-way ANOVA analysis method with statistical significance p values of * meaning p<0.05, ** meaning p<0.01, *** meaning p<0.001. […]

For assay [4], the system named is mitochondrial complex III in human aortic endothelial cells. Kind of assay: Western blot of mitochondrial complex III expression in palmitic acid-treated human aortic endothelial cells. The settings on record: 500 μM palmitic acid 24 h alone, versus control, HAEC, Western blot (FIG. 2A, 2B). Here is the method: as §1
Assay [5] has as its system FoxO1 protein in human aortic endothelial cells. Briefly: Western blot of FoxO1 protein expression in palmitic acid-treated human aortic endothelial cells. The settings on record: 500 μM palmitic acid 24 h alone, versus control, HAEC. Here is the method: as §1

Regarding `CCCCCCCCCCCCCCCC(=O)O` [palmitic acid], the “increase of mRNA level corresponding to IL-6” value in assay [1] was “about 12 times”. For the same compound, the “increase of mRNA level corresponding to MMP-1” value in assay [2] was “about 5 times”. Also, the “expression of mitochondrial complex I” value in assay [3] is given as “reducing”. Also, the “expression of mitochondrial complex III” value in assay [4] is on record as “reducing”. For the same compound, the “expression of FoxO1” value in assay [5] is reported as “reducing”.

For the origin of these results see patent publication US10576049B1, “Composition for improving function of aortic endothelial cell and use thereof” (XI'AN JIAOTONG UNIVERSITY, priority 2018, dated 2020).
